Test results published in the supplement of paper PMC10307832.

What was measured:
Experiment in all cases: relative viability (nuclei count vs DMSO), 5 days (fraction); higher = more cells survive
AZD5582 + Pemetrexed = compound: C[C@@H](C(=O)N[C@@H](C1CCCCC1)C(=O)N2CCC[C@H]2C(=O)N[C@@H]3[C@@H](CC4=CC=CC=C34)OCC#CC#CCO[C@@H]5CC6=CC=CC=C6[C@@H]5NC(=O)[C@@H]7CCCN7C(=O)[C@H](C8CCCCC8)NC(=O)[C@H](C)NC)NC [AZD5582] + Nc1nc2[nH]cc(CCc3ccc(C(=O)N[C@@H](CCC(=O)O)C(=O)O)cc3)c2c(=O)[nH]1 [Pemetrexed] (partner 0.2 µM)
Method in brief: (§1)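 Relative viability equals treated-well nuclei counts divided by vehicle-well nuclei counts. Counts came from 4× images of lung cancer cell lines grown in 1536-well plates for 5 days after pin-tool dosing on the day after seeding. Dosing used one drug alone or a fixed anchor-drug dose plus five library-drug doses (not always all listed) in √10 steps, and values are medians of duplicate plates.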

AZD5582 + Olaparib = compound: C[C@@H](C(=O)N[C@@H](C1CCCCC1)C(=O)N2CCC[C@H]2C(=O)N[C@@H]3[C@@H](CC4=CC=CC=C34)OCC#CC#CCO[C@@H]5CC6=CC=CC=C6[C@@H]5NC(=O)[C@@H]7CCCN7C(=O)[C@H](C8CCCCC8)NC(=O)[C@H](C)NC)NC [AZD5582] + O=C(c1cc(Cc2n[nH]c(=O)c3ccccc23)ccc1F)N1CCN(C(=O)C2CC2)CC1 [Olaparib] (partner 8 µM)
Method in brief: as §1

[1] = compound: Cn1nnc2c(C(N)=O)ncn2c1=O [Temozolomide] + CS(=O)(=O)N1CCN(Cc2cc3nc(-c4cccc5[nH]ncc45)nc(N4CCOCC4)c3s2)CC1 [Pictilisib] (partner 1 µM)
Method in brief: as §1

[2] = compound: Cn1nnc2c(C(N)=O)ncn2c1=O [Temozolomide] + O=C(CCCCCCC(=O)Nc1ccccc1)NO [Vorinostat] (partner 1 µM)
Method in brief: as §1

Cell Line	relative viability (AZD5582 + Pemetrexed; first compound 0.001581 µM)	relative viability (AZD5582 + Pemetrexed; first compound 0.005 µM)	relative viability (AZD5582 + Pemetrexed; first compound 0.01581 µM)	relative viability (AZD5582 + Pemetrexed; first compound 0.05 µM)	relative viability (AZD5582 + Olaparib; first compound 0.001581 µM)	relative viability (AZD5582 + Olaparib; first compound 0.005 µM)	relative viability (AZD5582 + Olaparib; first compound 0.01581 µM)	relative viability (AZD5582 + Olaparib; first compound 0.05 µM)	relative viability ([1]; first compound 0.2 µM)	relative viability ([1]; first compound 0.6325 µM)	relative viability ([1]; first compound 2 µM)	relative viability ([1]; first compound 6.325 µM)	relative viability ([1]; first compound 20 µM)	relative viability ([2]; first compound 0.2 µM)	relative viability ([2]; first compound 0.6325 µM)	relative viability ([2]; first compound 2 µM)	relative viability ([2]; first compound 6.325 µM)	relative viability ([2]; first compound 20 µM)
HARA	0.22	0.213	0.214	0.231	0.76	0.761	0.812	0.841	0.376	0.484	0.603	0.438	0.256	0.575	0.514	0.511	0.573	0.521
HCC-15	0.227	0.197	0.218	0.211	0.615	0.624	0.622	0.598	0.818	0.82	0.737	0.693	0.786	0.79	0.847	0.791	0.695	0.806
HCC-44	0.587	0.615	0.614	0.402	0.942	0.958	0.949	0.903	0.599	0.611	0.69	0.566	0.534	1.15	1.09	1.02	1.16	1.06
HCC-78	0.931	0.878	0.901	0.949	0.869	0.859	0.598	0.791	0.26	0.221	0.211	0.21	0.193	0.372	0.433	0.429		0.431
HCC-366	0.119	0.155	0.15	0.152	0.292	0.428	0.353	0.44	0.164	0.152	0.198	0.212	0.219	0.443	0.349	0.307	0.315	0.351
